# Results from patent US6737383B1, “Herbicidal oxadiazolidines” (priority 1999, dated 2004).
# Key:
# [1] = system: surinam grass; test: Test B pre/postemergence surinam grass; type: in vivo, Brachiaria decumbens
# How it was run: (§1)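 Test chemicals in a non-phytotoxic solvent mixture with surfactant were sprayed preemergence onto planted seeds and postemergence onto plants 2 to 18 cm tall (1- to 4-leaf stage). After twelve to sixteen days in a greenhouse, injury was visually rated against untreated controls from 0 (no effect) to 10 (complete control).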
# [2] = system: corn; test: Test B pre/postemergence corn; type: in vivo, Zea mays
# How it was run: as §1
# [3] = system: rape; test: Test B pre/postemergence rape; type: in vivo, Brassica napus; conditions: for Plant response rating, Rape: scale of 0 to 10 where 0 is no effect and 10 is complete control
# How it was run: as §1
# [4] = system: blackgrass; test: Test B pre/postemergence blackgrass; type: in vivo, Alopecurus myosuroides
# How it was run: as §1
# [5] = system: morningglory; test: Test B pre/postemergence morningglory; type: in vivo, Ipomoea hederacea; conditions: for Plant response rating, Morningglory: scale of 0 to 10 where 0 is no effect and 10 is complete control
# How it was run: as §1
# [6] = system: wheat; test: Test B pre/postemergence wheat; type: in vivo, Triticum aestivum; conditions: for Plant response rating, Wheat: scale of 0 to 10 where 0 is no effect and 10 is complete control
# How it was run: as §1
# [7] = system: rice; test: Test B flood test rice; type: in vivo, Oryza sativa
# How it was run: (§2)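 Each value is a visual injury score relative to controls, with 10 meaning complete control and 0 no effect. Evaluation took place twelve to sixteen days after the 2-leaf-stage plants were treated and kept in the greenhouse.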
# [8] = system: bamyardgrass; test: Test B flood test barnyardgrass; type: in vivo, Echinochloa crus-galli
# How it was run: as §2
# [9] = system: wild oat; test: Test B pre/postemergence wild oat; type: in vivo, Avena fatua; conditions: for Plant response rating, Wild oats: scale of 0 to 10 where 0 is no effect and 10 is complete control
# How it was run: as §1
# [10] = system: pigweed; test: Test B pre/postemergence pigweed; type: in vivo, Amaranthus retroflexus; conditions: for Plant response rating, Redroot pigweed: scale of 0 to 10 where 0 is no effect and 10 is complete control
# How it was run: as §1
# [11] = system: giant foxtail; test: Test B pre/postemergence giant foxtail; type: in vivo, Setaria faberii
# How it was run: as §1
# [12] = system: sugar beet; test: Test B pre/postemergence sugar beet; type: in vivo, Beta vulgaris; conditions: for Plant response rating, Sugarbeets: scale of 0 to 10 where 0 is no effect and 10 is complete control
# How it was run: as §1
# [13] = system: cocklebur; test: Test B pre/postemergence cocklebur; type: in vivo, Xanthium strumarium
# How it was run: as §1
# [14] = system: crabgrass; test: Test B pre/postemergence crabgrass; type: in vivo, Digitaria sanguinalis
# How it was run: as §1
# [15] = system: purple nutsedge; test: Test B pre/postemergence purple nutsedge; type: in vivo, Cyperus rotundus
# How it was run: as §1
# [16] = Postemergence, Rate 500 g/ha, scale of 0 to 10 where 0 is no effect and 10 is complete control
# [17] = Preemergence, Rate 62 g/ha, scale of 0 to 10 where 0 is no effect and 10 is complete control
# [18] = Preemergence, Rate 125 g/ha, scale of 0 to 10 where 0 is no effect and 10 is complete control
# [19] = Preemergence, Rate 250 g/ha, scale 0 to 10, 0 is no effect, 10 is complete control
# [20] = Preemergence, Rate 500 g/ha, scale 0 to 10, 0 is no effect, 10 is complete control
# [21] = Rate 62 g/ha, Postemergence, scale 0 to 10, 0 no effect, 10 complete control
# [22] = Rate 125 g/ha, Postemergence, scale 0 to 10, 0 is no effect, 10 is complete control
# [23] = Postemergence, Rate 250 g/ha, scale 0 to 10
# [24] = Rate 62 g/ha, flood test species, Pre-emergence, visual evaluation after twelve to sixteen days
# [25] = Rate 125 g/ha, under heading Pre-emergence, flood test species, visual evaluation after twelve to sixteen days
# [26] = Rate 250 g/ha, Pre-emergence (flood test species), scale 0 to 10, 0 is no effect, 10 is complete control
# [27] = Rate 500 g/ha, Pre-emergence, flood test species, scale 0 to 10 (0 no effect, 10 complete control)
smiles,measurement,setting,value
CCC=CCn1c(=O)on(C(=O)N(c2ccccc2)C(C)C)c1=O [Compound 454],B. signalgrass plant response rating,"[1]; Postemergence, Rate 250 g/ha, scale 0 to 10, 0 no effect, 10 complete control",0
same,B. signalgrass plant response rating,[1]; [16],2
same,"Plant response rating, B. signalgrass",[1]; [17],0
same,"Plant response rating, B. signalgrass",[1]; [18],0
same,B. signalgrass plant response rating,[1]; [19],4
same,B. signalgrass plant response rating,[1]; [20],4
same,B. signalgrass plant response rating,[1]; [21],0
same,B. signalgrass plant response rating,[1]; [22],0
same,Corn plant response rating,[2]; [23],0
same,Corn plant response rating,[2]; [16],0
same,"Plant response rating, Corn",[2]; [17],0
same,"Plant response rating, Corn",[2]; [18],0
same,Corn plant response rating,[2]; [19],0
same,Corn plant response rating,[2]; [20],3
same,Corn plant response rating,[2]; [21],0
same,Corn plant response rating,[2]; [22],0
same,Rape plant response rating,[3]; [23],0
same,"Plant response rating, Rape","[3]; Preemergence, Rate 62 g/ha",0
same,"Plant response rating, Rape","[3]; Preemergence, Rate 125 g/ha",0
same,Rape plant response rating,[3]; [19],0
same,Rape plant response rating,[3]; [20],0
same,Rape plant response rating,[3]; [21],0
same,Rape plant response rating,[3]; [22],0
same,Blackgrass plant response rating,[4]; [23],2
same,Blackgrass plant response rating,[4]; [16],2
same,"Plant response rating, Blackgrass",[4]; [17],0
same,"Plant response rating, Blackgrass",[4]; [18],0
same,Blackgrass plant response rating,[4]; [19],2
same,Blackgrass plant response rating,[4]; [20],6
same,Blackgrass plant response rating,[4]; [21],0
same,Blackgrass plant response rating,[4]; [22],0
same,Morningglory plant response rating,[5]; [23],10
same,"Plant response rating, Morningglory","[5]; Preemergence, Rate 62 g/ha",0
same,"Plant response rating, Morningglory","[5]; Preemergence, Rate 125 g/ha",0
same,Morningglory plant response rating,[5]; [19],0
same,Morningglory plant response rating,[5]; [20],0
same,Morningglory plant response rating,[5]; [21],7
same,Morningglory plant response rating,[5]; [22],9
same,Wheat plant response rating,[6]; [23],0
same,"Plant response rating, Wheat","[6]; Preemergence, Rate 62 g/ha",0
same,"Plant response rating, Wheat","[6]; Preemergence, Rate 125 g/ha",0
same,Wheat plant response rating,[6]; [19],0
same,Wheat plant response rating,[6]; [20],0
same,Wheat plant response rating,[6]; [21],0
same,Wheat plant response rating,[6]; [22],0
same,"Plant response rating, Rice (0 to 10 scale, 0 is no effect, 10 is complete control)",[7]; [24],0
same,"Rice plant response rating (0 to 10 scale, 0 is no effect, 10 is complete control)",[7]; [25],0
same,Rice plant response rating,[7]; [26],0
same,Rice plant response rating,[7]; [27],0
same,"Plant response rating, Barnyardgrass (0 to 10 scale, 0 is no effect, 10 is complete control)",[8]; [24],0
same,"Barnyardgrass plant response rating (0 to 10 scale, 0 is no effect, 10 is complete control)",[8]; [25],0
same,Barnyardgrass plant response rating,[8]; [26],0
same,Barnyardgrass plant response rating,[8]; [27],0
same,Wild oats plant response rating,[9]; [23],0
same,"Plant response rating, Wild oats","[9]; Preemergence, Rate 62 g/ha",0
same,"Plant response rating, Wild oats","[9]; Preemergence, Rate 125 g/ha",0
same,Wild oats plant response rating,[9]; [19],0
same,Wild oats plant response rating,[9]; [20],2
same,Wild oats plant response rating,[9]; [21],0
same,Wild oats plant response rating,[9]; [22],0
same,Redroot pigweed plant response rating,[10]; [23],2
same,"Plant response rating, Redroot pigweed","[10]; Preemergence, Rate 62 g/ha",0
same,"Plant response rating, Redroot pigweed","[10]; Preemergence, Rate 125 g/ha",2
same,Redroot pigweed plant response rating,[10]; [19],9
same,Redroot pigweed plant response rating,[10]; [20],10
same,Redroot pigweed plant response rating,[10]; [21],0
same,Redroot pigweed plant response rating,[10]; [22],0
same,Giant foxtail plant response rating,[11]; [23],8
same,Giant foxtail plant response rating,[11]; [16],9
same,"Plant response rating, Giant foxtail",[11]; [17],6
same,"Plant response rating, Giant foxtail",[11]; [18],9
same,Giant foxtail plant response rating,[11]; [19],10
same,Giant foxtail plant response rating,[11]; [20],10
same,Giant foxtail plant response rating,[11]; [21],2
same,Giant foxtail plant response rating,[11]; [22],2
same,Sugarbeets plant response rating,[12]; [23],0
same,"Plant response rating, Sugarbeets","[12]; Preemergence, Rate 62 g/ha",0
same,"Plant response rating, Sugarbeets","[12]; Preemergence, Rate 125 g/ha",0
same,Sugarbeets plant response rating,[12]; [19],0
same,Sugarbeets plant response rating,[12]; [20],0
same,Sugarbeets plant response rating,[12]; [21],0
same,Sugarbeets plant response rating,[12]; [22],0
same,Cocklebur plant response rating,[13]; [23],0
same,Cocklebur plant response rating,[13]; [16],0
same,"Plant response rating, Cocklebur",[13]; [17],0
same,"Plant response rating, Cocklebur",[13]; [18],0
same,Cocklebur plant response rating,[13]; [19],0
same,Cocklebur plant response rating,[13]; [20],0
same,Cocklebur plant response rating,[13]; [21],0
same,Cocklebur plant response rating,[13]; [22],0
same,Crabgrass plant response rating,[14]; [23],3
same,Crabgrass plant response rating,[14]; [16],9
same,"Plant response rating, Crabgrass",[14]; [17],2
same,"Plant response rating, Crabgrass",[14]; [18],3
same,Crabgrass plant response rating,[14]; [19],8
same,Crabgrass plant response rating,[14]; [20],9
same,Crabgrass plant response rating,[14]; [21],2
same,Nutsedge plant response rating,[15]; [23],0
same,"Plant response rating, Nutsedge",[15]; [17],0
same,Nutsedge plant response rating,[15]; [19],0
same,Nutsedge plant response rating,[15]; [20],0
same,Nutsedge plant response rating,[15]; [21],0
same,Nutsedge plant response rating,[15]; [22],0
